Data reported in the supplement of paper PMC10307832.

Assays:
Experiment in all cases: relative viability (nuclei count vs DMSO), 5 days (fraction); higher = more cells survive
RO-3306 + Pemetrexed = compound: C1=CC2=C(C=CC(=C2)C=C3C(=O)NC(=NCC4=CC=CS4)S3)N=C1 [RO-3306] + Nc1nc2[nH]cc(CCc3ccc(C(=O)N[C@@H](CCC(=O)O)C(=O)O)cc3)c2c(=O)[nH]1 [Pemetrexed] (partner 0.2 µM)
In short: (§1)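 The day after seeding in 1536-well plates, lung cancer cell lines were treated by pin tool with a single drug, or with a fixed anchor-drug dose together with five library-drug doses (not always all listed) in √10 steps. After 5 days, a combined fix-and-stain solution (final 0.05% Triton X-100, 1% formaldehyde, 1 ug/ml Hoechst) was added. Nuclei counted on 4× images gave relative viability as treated counts over vehicle counts, reported as the median of duplicate plates.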

RO-3306 + Crizotinib = compound: C1=CC2=C(C=CC(=C2)C=C3C(=O)NC(=NCC4=CC=CS4)S3)N=C1 [RO-3306] + C[C@@H](Oc1cc(-c2cnn(C3CCNCC3)c2)cnc1N)c1c(Cl)ccc(F)c1Cl [Crizotinib] (partner 1 µM)
In short: as §1

RO-3306 + Navitoclax = compound: C1=CC2=C(C=CC(=C2)C=C3C(=O)NC(=NCC4=CC=CS4)S3)N=C1 [RO-3306] + CC1(C)CCC(c2ccc(Cl)cc2)=C(CN2CCN(c3ccc(C(=O)NS(=O)(=O)c4ccc(N[C@H](CCN5CCOCC5)CSc5ccccc5)c(S(=O)(=O)C(F)(F)F)c4)cc3)CC2)C1 [Navitoclax] (partner 0.5 µM)
In short: as §1

RO-3306 + Dasatinib = compound: C1=CC2=C(C=CC(=C2)C=C3C(=O)NC(=NCC4=CC=CS4)S3)N=C1 [RO-3306] + Cc1nc(Nc2ncc(C(=O)Nc3c(C)cccc3Cl)s2)cc(N2CCN(CCO)CC2)n1 [Dasatinib] (partner 0.075 µM)
In short: as §1

Row | Cell Line | relative viability (RO-3306 + Pemetrexed; first compound 0.01 µM) | relative viability (RO-3306 + Pemetrexed; first compound 0.03162 µM) | relative viability (RO-3306 + Pemetrexed; first compound 0.1 µM) | relative viability (RO-3306 + Pemetrexed; first compound 0.3162 µM) | relative viability (RO-3306 + Pemetrexed; first compound 1 µM) | relative viability (RO-3306 + Crizotinib; first compound 0.01 µM) | relative viability (RO-3306 + Crizotinib; first compound 0.03162 µM) | relative viability (RO-3306 + Crizotinib; first compound 0.1 µM) | relative viability (RO-3306 + Crizotinib; first compound 0.3162 µM) | relative viability (RO-3306 + Crizotinib; first compound 1 µM) | relative viability (RO-3306 + Navitoclax; first compound 0.01 µM) | relative viability (RO-3306 + Navitoclax; first compound 0.03162 µM) | relative viability (RO-3306 + Navitoclax; first compound 0.1 µM) | relative viability (RO-3306 + Navitoclax; first compound 0.3162 µM) | relative viability (RO-3306 + Navitoclax; first compound 1 µM) | relative viability (RO-3306 + Dasatinib; first compound 0.01 µM) | relative viability (RO-3306 + Dasatinib; first compound 0.03162 µM) | relative viability (RO-3306 + Dasatinib; first compound 0.1 µM) | relative viability (RO-3306 + Dasatinib; first compound 0.3162 µM) | relative viability (RO-3306 + Dasatinib; first compound 1 µM)
1 | 201T | 0.277 | 0.315 | 0.358 | 0.32 | 0.41 | 1.07 | 1.03 | 0.998 | 0.992 | 1.02 | 1.2 | 1.21 | 1.14 | 1.23 | 1.23 | 0.584 | 0.588 | 0.571 | 0.529 | 0.517
2 | A549 | – | – | – | – | – | 0.872 | 0.705 | 0.751 | 0.687 | 0.706 | 1.36 | – | 1.2 | 1.18 | 1.21 | – | – | – | – | –
3 | A-427 | 0.942 | 0.902 | 0.966 | 0.937 | 0.607 | 1.02 | 0.883 | 0.904 | 0.955 | 0.845 | 1.05 | 0.978 | 0.959 | 0.936 | 0.993 | 0.739 | 0.565 | 0.644 | 0.631 | 0.551
4 | ABC-1 | – | – | – | – | – | 1.21 | 0.85 | 1.12 | 1.18 | 1.44 | – | – | – | – | – | 0.644 | 0.614 | 0.483 | 0.458 | 0.531
5 | BEN | 0.634 | 0.735 | 0.728 | 0.769 | 0.803 | 0.834 | 0.768 | 0.86 | 0.906 | 0.813 | 0.057 | 0.0628 | 0.0739 | 0.0677 | 0.0527 | 0.381 | 0.324 | 0.297 | 0.307 | 0.338
6 | CAL-12T | 1.38 | 1.35 | 1.17 | 1.15 | 1.26 | 0.57 | 0.49 | 0.531 | 0.63 | 0.508 | 1.01 | 1.07 | 1.32 | 1.16 | 1.13 | 0.394 | 0.279 | 0.345 | 0.372 | 0.356
7 | COR-L23 | 0.179 | 0.216 | 0.214 | 0.194 | 0.187 | 0.45 | – | 0.748 | 0.694 | 0.74 | 0.734 | – | 0.974 | 1.01 | 0.937 | 0.477 | 0.392 | 0.48 | 0.642 | 0.374
8 | COR-L 105 | 1.25 | 0.993 | 1.04 | 0.913 | 0.95 | 0.757 | 0.794 | 0.781 | 0.768 | 0.673 | 0.823 | 0.814 | 0.742 | 0.842 | 0.688 | 0.3 | 0.302 | 0.271 | 0.344 | 0.335
9 | Calu-6 | – | – | – | – | – | 0.909 | 0.774 | 0.802 | 0.804 | 0.768 | 1.06 | 0.776 | 0.934 | 0.908 | 0.826 | – | – | – | – | –
10 | ChaGo-K-1 | 0.319 | 0.266 | 0.331 | 0.259 | 0.249 | 1.2 | 1.03 | 1.14 | 0.858 | 0.818 | 0.971 | 1.23 | 0.629 | 0.952 | 0.675 | 0.63 | 0.624 | 0.569 | 0.622 | 0.349
11 | EBC-1 | – | – | – | – | – | 0.206 | 0.233 | 0.202 | 0.181 | 0.205 | 0.412 | 0.357 | 0.315 | 0.474 | 0.29 | – | – | – | – | –
12 | EKVX | 0.416 | 0.306 | 0.405 | 0.444 | 0.454 | 1.05 | 0.859 | 1.03 | 1.04 | 0.894 | 1.02 | 0.94 | 1.06 | 0.971 | 0.921 | 0.349 | – | 0.514 | 0.55 | 0.492
13 | EMC-BAC-2 | 0.427 | 0.423 | 0.431 | 0.458 | 0.394 | 0.768 | 0.723 | 0.767 | 0.735 | 0.702 | 1.44 | 0.984 | 1.25 | 1.24 | 1.14 | 0.337 | 0.522 | 0.329 | 0.326 | 0.304
14 | EPLC-272H | 0.36 | 0.436 | 0.406 | 0.3 | 0.247 | 0.948 | 0.841 | 0.904 | 1.03 | 0.532 | 1.15 | 0.92 | 1.02 | 1.11 | 0.994 | 0.365 | 0.193 | 0.384 | 0.237 | 0.299
15 | H3255 | 0.506 | 0.501 | 0.547 | 0.57 | 0.57 | 0.926 | 0.836 | 0.761 | 0.916 | 0.642 | 0.458 | 0.484 | 0.558 | 0.47 | 0.428 | 0.358 | 0.381 | 0.353 | 0.327 | 0.329
16 | HARA | 0.242 | – | 0.227 | 0.24 | 0.288 | 1.05 | 0.916 | 1.04 | 1.27 | 1.01 | 1.16 | 1.11 | 1.17 | 1.12 | 1.37 | 0.362 | 0.256 | 0.356 | 0.306 | 0.257
17 | HCC-15 | 0.203 | 0.21 | 0.26 | 0.225 | 0.199 | 1.01 | 0.707 | 0.848 | 0.925 | 0.763 | 0.727 | 0.656 | 0.716 | 0.808 | 0.654 | 0.594 | 0.554 | 0.59 | 0.534 | 0.574
18 | HCC-44 | 0.712 | 0.643 | 0.651 | 0.622 | 0.744 | 0.825 | 0.83 | 0.881 | 0.835 | 0.818 | 1.09 | 1.01 | 0.932 | 1.08 | 1.03 | – | – | – | – | –
